What was measured:
[1] = retention time on BEH HILIC column (20 min gradient, 0.4 mL/min); higher = later elution; conditions: LC: HILIC
Method: (§1)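 Reference standards (20-100 uM) were separated by HILIC UPLC (BEH HILIC, 45 °C): acidic pH 3.0 ammonium formate/formic acid for ESI+ and basic pH 9.0 ammonium acetate/ammonia for ESI-. They were analysed on a Synapt G2-Si traveling-wave IMS-QTOF with nitrogen drift gas (WH 30 V; WV 800 m/s in ESI+ and 1000 m/s in ESI-).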

[2] = collision cross section (TWIMS, N2) of ion [M-H]-; higher = larger gas-phase ion cross section; conditions: ionization: ESI negative; LC: HILIC, pH 9.0 ammonium acetate
Method: as §1

[3] = collision cross section (TWIMS, N2) of ion [M+H]+; higher = larger gas-phase ion cross section; conditions: ionization: ESI positive; LC: HILIC, pH 3.0 ammonium formate
Method: as §1

[4] = collision cross section (TWIMS, N2) of ion [M+Na]+; higher = larger gas-phase ion cross section; conditions: ionization: ESI positive; LC: HILIC, pH 3.0 ammonium formate
Method: as §1, with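 “ESI-). CCS (TWCCSN2, Å2) was calibrated with Major Mix IMS/TOF and LockCCS leucine enkephalin; inter-day RSD was <1%.” for “ESI-).”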

[5] = ionization: ESI negative, pH 9.0 ammonium acetate
[6] = ionization: ESI positive, pH 3.0 ammonium formate

| SMILES | retention time on BEH HILIC column [1, 5] [min] | retention time on BEH HILIC column [1, 6] [min] | collision cross section [2] [Å²] | collision cross section [3] [Å²] | collision cross section [4] [Å²] |
| --- | --- | --- | --- | --- | --- |
| NCCCC[C@H](N)C(=O)O [L-lysine] | 11.6 | 11.3 | 135.63 | 131.69 |  |
| N[C@@H](Cc1ccccc1)C(=O)O [L-phenylalanine] | 6.02 | 5.92 | 138.51 | 137.14 |  |
| O=C[C@H](O)[C@H](O)[C@H](O)[C@@H](O)CO [L-talose] |  | 3.25 |  |  | 135.32 |
| N[C@@H](Cc1c[nH]c2ccccc12)C(=O)O [L-tryptophan] | 5.86 | 5.77 | 148.33 | 147.76 |  |
| CC(C)[C@H](N)C(=O)O [L-valine] | 6.85 | 6.79 | 126.43 | 123.49 |  |
| CCCCCCC(=O)OC [Methyl heptanoate] | 1.13 | 0.84 | 137.2 | 137.86 |  |
| CCCCCCCCC(=O)OC [Methyl nonanoate] | 1.03 | 1.03 | 144.8 | 148.93 |  |
| NCCC[C@H](N)C(=O)O [Ornithine] | 11.2 | 11.1 | 129.53 | 129.31 |  |
| N[C@@H](CCC(=O)N[C@@H](CSSC[C@H](NC(=O)CC[C@H](N)C(=O)O)C(=O)NCC(=O)O)C(=O)NCC(=O)O)C(=O)O [Oxidized glutathione] | 12.5 | 12.6 | 216.04 | 226.92 |  |
| O=C1CC[C@@H](C(=O)O)N1 [Pyroglutamic acid] | 5.48 | 6.77 | 123.74 | 126.02 |  |
| Cc1cc2nc3c(=O)[nH]c(=O)nc-3n(C[C@H](O)[C@H](O)[C@H](O)CO)c2cc1C [Riboflavin] | 3.11 | 5.57 | 184.43 | 182.66 |  |
| CC(C)(COP(=O)(O)OP(=O)(O)OC[C@H]1O[C@@H](n2cnc3c(N)ncnc32)[C@H](O)[C@@H]1OP(=O)(O)O)[C@@H](O)C(=O)NCCC(=O)NCCSC(=O)CCC(=O)O [Succinyl-CoA] | 12.3 | 13.5 | 262.11 | 260.23 |  |
| NCCS(=O)(=O)O [Taurine] | 6.14 | 6 | 119.39 | 126.38 |  |
| O=C(O)C(CO)c1ccccc1 (stereo unspecified) [Tropate] |  | 1.08 |  |  | 140.74 |
| O=c1[nH]c(=O)c2[nH]c(=O)[nH]c2[nH]1 [Uric acid] | 5.34 | 3.02 | 125.59 | 133.36 |  |
| O=c1ccn([C@@H]2O[C@H](CO)[C@@H](O)[C@H]2O)c(=O)[nH]1 [Uridine] | 1.47 | 1.47 | 153.03 | 146.3 |  |
| C=C1CC[C@H](O)C/C1=C/C=C1\CCC[C@]2(C)[C@@H]([C@H](C)CCCC(C)C)CC[C@@H]12 [Vitamin D3] | 17.5 | 0.73 | 201.16 | 206.18 |  |
| O=C(O)c1cc(O)c2cccc(O)c2n1 [Xanthurenic acid] | 4.65 | 4.47 | 136.52 | 136.81 |  |
| Cc1c(C)c2c(c(C)c1O)CC[C@@](C)(CCC[C@H](C)CCC[C@H](C)CCCC(C)C)O2 [a-tocopherol] | 0.73 | 0.73 | 212.59 | 216.53 |  |
| Nc1ncnc2c1ncn2[C@@H]1O[C@@H]2COP(=O)(O)O[C@H]2[C@H]1O [cAMP] | 6.8 | 6.85 | 171.56 | 174.12 |  |
